According to patent US20170121295A1, “POLYCYCLIC LPA1 ANTAGONIST AND USES THEREOF” (AMIRA PHARMACEUTICALS, INC., priority 2010, published 2017):
Values belong to the compound of their own block, whether it stands above or below them.

How the values were obtained:
[1] = Gravimetric Vapour Sorption (GVS); type: physicochemical
Method: In some embodiments, sorption isotherms were obtained using a SMS DVS Intrinsic moisture sorption analyzer, controlled by SMS Analysis Suite software. The sample temperature was maintained at 25° C. by the instrument controls. The humidity was controlled by mixing streams of dry and wet nitrogen, with a total flow rate of 200 ml·min−1. The relative humidity was measured by a calibrated Rotronic probe (dynamic range of 1.0-100% RH), located near the sample. The weight change (mass relaxation) of the sample as a function of % RH was constantly monitored by the microbalance (accuracy ±0.005 mg). Typically 5-20 mg of sample was placed in a tared mesh stainless steel basket under ambient conditions. The sample was loaded and unloaded at 40% RH and 25° C. (typical room conditions). A moisture sorption isotherm was performed as outlined below (2 scans giving 1 complete cycle). The standard isotherm was performed at 25° C. at 10% RH intervals over a 0.5-90% RH range.
The sample was recovered after completion of the isotherm and re-analyzed by XRPD.

[2] = Solid form stability on storage at elevated relative humidity (XRPD); type: physicochemical
Text: X-Ray powder diffraction patterns were collected on a Bruker AXS C2 GADDS or Bruker AXS D8 Advance diffractometer.
X-Ray Powder Diffraction patterns were collected on a Bruker D8 diffractometer using Cu Kα radiation (40 kV, 40 mA), θ−2θ goniometer, and divergence of V4 and receiving slits, a Ge monochromator and a Lynxeye detector. The instrument was performance checked using a certified Corundum standard (NIST 1976). The software used for data collection was Diffrac Plus XRD Commander v2.5.0 and the data were analyzed and presented using Diffrac Plus EVA v 11.0.0.2 or v 13.0.0.2. Samples were run under ambient conditions as flat plate specimens using powder. Approximately 5 mg of the sample was gently packed into a cavity cut into polished, zero-background (510) silicon wafer. The sample was rotated in its own plane during analysis. The details of the data collection are: • Angular range: 2 to 42° 2θ • Step size: 0.05° 2θ • Collection time: 0.5 s·step^−1

[3] = Solubility assessment at various pH levels (solubility profile); type: physicochemical; settings: 0.15M NaCl solution, saline or isotonic, thermodynamic from solid
Method: For solubility assessment at various pH levels sufficient material to produce a maximum concentration of 10 mg·ml^−1 of API was treated with 0.15M NaCl solution and then the pH adjusted with HCl or NaOH solutions to achieve the desired pH levels. The suspensions were allowed to equilibrate for 2 hours and the pH measured and adjusted if necessary. Suspensions were then filtered and the amount of dissolved API quantified by HPLC against a standard reference solution.
Analysis was performed on an Agilent HP1100 series system equipped with a diode array detector and using ChemStation software vB.02.01-SR1.
The solubility of both the free acid and amorphous sodium salt was determined at a range of pH values.

[4] = Metabolite identification in liver microsomes; type: in vitro ADME, rat, dog, monkey, human; settings: 30 μM Compound 1, 60 minutes
Method: To determine the qualitative metabolic profile, 30 μM of Compound 1 was incubated aerobically with rat, dog, monkey, or human liver microsomes (1 mg/mL). The incubations were performed in phosphate buffer at pH 7.4, 37° C., with the reaction initiated by the addition of P-NADPH, GSH and/or UDPGA (1, 5 and 2 mM final concentration, respectively). The reaction was terminated by the addition of 3 times incubation volume of acetonitrile after 60 minutes. The sample was centrifuged and the supernatant was transferred, nitrogen blow dried and reconstituted in 50% acetonitrile in water for LC/MS analysis.
(§1) LC/MS/MS analysis was carried out with a Sciex API-4000Qtrap tandem mass spectrometer (Applied Biosystems/Life Technologies, Carlsbad, Calif.) interfaced to a high-performance liquid chromatography system consisting of an Agilent 1200 series pump (Foster City, Calif.) and a LEAP Technologies PAL autoinjector (Carrboro, N.C.).
(§2) Parent/metabolite analysis was conducted in the positive ion mode (ESI) by multiple reaction monitoring of parent. The mobile phases contained 10 mM ammonium acetate in water with 0.05% formic acid (solvent A) and 10 mM ammonium acetate in 50% acetonitrile/50% methanol with 0.05% formic acid (solvent B). For Compound 1, the flow rate was maintained at 1 mL/min and the total run time was 2.5 min. Analytes were separated on a YMC ODS-AQ column (2.1×150 mm; 3 μm) and eluted with a linear gradient as follows: • 1. mobile phase was held for 0.5 min at 5% B, • 2. B was increased from 5% to 95% over the next 0.2 min, • 3. B was held constant for 1.3 min at 95%, and • 4. B was returned to the initial gradient conditions.
(§3) GSH adducts were investigated in microsomes, hepatocytes and rat bile using several methods including the neutral loss of pyroglutamate (129 Da) as well as a precursor ion scans of Compound 1 (105 Da, 318 Da and 438 Da).
For metabolite quantitation, the flow rate was maintained at 0.25 mL/min and the total run time was 60 min. Analytes were separated using a linear gradient as follows: • 1. mobile phase was held for 5 min at 5% B, • 2. […]

[5] = Metabolite identification in hepatocytes; type: in vitro ADME, rat, dog, monkey, human; settings: 30 μM Compound 1
Method: Rat, dog, monkey, or human hepatocytes were thawed according to the supplier's instructions. Cells were counted using the Trypan Blue method, and then diluted to 1×10^6 viable cells/ml with KB medium. Compound 1 was tested at 30 μM and incubated for up to 2 hours in rat hepatocytes and 4 hours in dog, monkey or human hepatocytes at 37° C. Reactions were terminated with addition of 3 times incubation volume of acetonitrile, centrifuged, and supernatants were transferred, nitrogen blow dried and reconstituted in 50% acetonitrile in water for LC/MS analysis.
as §1, §2, §3
For metabolite quantitation, the flow rate was maintained at 0.25 mL/min and the total run time was 60 min. Analytes were separated using a linear gradient as follows: • 1. mobile phase was held for 5 min at 5% B, • 2. B was increased from 5% to 95% over the next 45 min. • 3. […]

[6] = Metabolites generated in vivo (rat bile and urine, rat and dog plasma); settings: Compound 2 IV 2 mg/kg, bile duct cannulated rats
Method: Compound 2 (2 mg/kg) was administered intravenously (IV) to fasted rats as a solution in 0.9% saline via a bolus injection into the jugular vein (2 mg/mL; […]).
Rats with surgically placed bile duct and jugular vein cannula were purchased from Charles River Laboratories and allowed to acclimate for 2 days. Compound 2 was intravenously dosed (2 mg/kg) to three rats as a solution in 0.9% saline (2 mg/mL; 1 mL/kg). Bile samples were collected at time-points 0-2, 2-5 and 5-8, and urine samples were collected at time-points 0-4 and 4-8 hrs post-dose in 8 mL scintillation vials and stored at −40° C. until analysis.
Concentrations of Compound 1 in rat plasma were determined by LC-MS/MS after protein precipitation. Rat plasma (100 μL) was treated with 400 μL of internal standard solution (ISTD, buspirone in acetonitrile containing 1.5% acetic acid) to precipitate proteins. Samples were vortexed and then centrifuged for 10 min at approximately 4,000 rpm (3700×g) at 4° C. (Beckman centrifuge, Brea, Calif.).
as §2
For metabolite quantitation, the flow rate was maintained at 0.25 mL/min and the total run time was 60 min. Analytes were separated using a linear gradient as follows: • 1. mobile phase was held for 5 min at 5% B, • 2. B was increased from 5% to 95% over the next 45 min. • 3. B was held constant for 5 min at 95%, and • 4. B was returned to the initial gradient conditions

[7] = 40° C./75% RH for one week, sodium salt

change of form after GVS analysis (XRPD) [1]: No change of form is observed | mass gain between 0% and 90% relative humidity ([1]; 25° C.): more than 20% | XRPD / solid form after storage [2, 7]: remains largely amorphous
SMILES: Cc1noc(-c2ccc(-c3ccc(C4(C(=O)[O-])CC4)cc3)cc2)c1NC(=O)O[C@H](C)c1ccccc1.[Na+] [Amorphous Compound 2, 1-{4′-[3-methyl-4-((R)-1-phenyl-ethoxycarbonylamino)-isoxazol-5-yl]-biphenyl-4-yl}-cyclopropanecarboxylic acid, sodium salt]

solubility at 2 h ([3]; Target pH 3, pH adjusted with HCl or NaOH): < 1 µg/mL | solubility at 2 h ([3]; Target pH 4, pH adjusted with HCl or NaOH): < 1 µg/mL | solubility at 2 h ([3]; Target pH 5, pH adjusted with HCl or NaOH): < 1 µg/mL | solubility at 2 h ([3]; Target pH 6, pH adjusted with HCl or NaOH): 1.7 µg/mL | solubility at 2 h ([3]; Target pH 7, pH adjusted with HCl or NaOH): 300 µg/mL | solubility at 2 h ([3]; Target pH 8, pH adjusted with HCl or NaOH): 5600 µg/mL | solubility at 2 h ([3]; Target pH 9, pH adjusted with HCl or NaOH): 17000 µg/mL | solubility at 2 h ([3]; Target pH 11, pH adjusted with HCl or NaOH): 16000 µg/mL
SMILES: Cc1noc(-c2ccc(-c3ccc(C4(C(=O)[O-])CC4)cc3)cc2)c1NC(=O)O[C@H](C)c1ccccc1.[Na+] [Compound 2 (Amorphous)]

metabolite observed in liver microsomes [4]: major metabolites | metabolite observed in hepatocytes [5]: major metabolites | metabolite observed in rat bile [6]: major metabolites
SMILES: Cc1noc(-c2ccc(-c3ccc(C4(C(=O)ON[C@H](C=O)CCC(=O)O)CC4)cc3)cc2)c1NC(=O)O[C@H](C)c1ccccc1 [Compound M1]

metabolite observed in liver microsomes [4]: observed | metabolite observed in hepatocytes [5]: observed | metabolite observed in rat bile [6]: observed
SMILES: Cc1noc(-c2ccc(-c3ccc(C4(C(=O)O)CC4)cc3)cc2)c1NC(=O)O[C@H](C)c1cccc(O)c1 [Compound M4]

XRPD / solid form after storage ([2]; 25° C./95% RH, a week): no loss of crystallinity | XRPD / solid form after storage [2, 7]: no loss of crystallinity
SMILES: Cc1noc(-c2ccc(-c3ccc(C4(C(=O)[O-])CC4)cc3)cc2)c1NC(=O)O[C@H](C)c1ccccc1.[Na+] [Crystalline Compound 2 (Pattern 1), 1-{4′-[3-methyl-4-((R)-1-phenyl-ethoxycarbonylamino)-isoxazol-5-yl]-biphenyl-4-yl}-cyclopropanecarboxylic acid, sodium salt]
hygroscopicity (comparison) [1]: lower hygroscopicity than its amorphous counterpart
